Target: T1, WIZ (Homo sapiens, UniProt O95785+Q96SW2)
T1 construct: expressed in transfected cells
Assay: Quantification of WIZ protein levels in HiBit tag fusion protein assay (WIZ HiBit assay in 293T cells)
Type: cell-based
Details: for Dmax at 25 µM / remaining activity at 25 µM: HEK-293T; for Dmax at 25 µM: 100 minus Amax at 25 uM, read-out: % degradation of WIZ (100-Amax); for remaining activity at 25 µM: DMSO-normalized, curve-fitted percentage of WIZ-HiBit remaining at 25 uM, read-out: WIZ Amax; for DC50: WIZ HiBit assay in 293T cells, 10-point, 5-fold dilution, highest concentration 25 μM, about 18 hours, read-out: WIZ AC50
Experimental: The HiBit system from Promega was used to develop high-throughput and quantitative assays to measure changes in WIZ protein levels in response to compounds. The HiBit tag was derived from a split Nanoluciferase and has the following protein sequence: […] (SEQ ID NO: 1). The complementary fragment of Nanoluciferase (known as LgBit, from Promega), was added to the HiBit tag to form an active Nanoluciferase enzyme whose activity can be precisely measured. In this way, the levels of a fusion protein with the HiBit tag can be quantified in cell lysates.
Lentiviral vectors, based on the Invitrogen™ pLenti6.2/V5 DEST backbone were constructed that places the HiBit tag upstream of WIZ and expressed the fusion protein from an HSVTK promotor.
To ensure moderate and consistent expression of the HiBit-WIZ fusion protein across all cells in the population, stable cell lines were constructed from cells harboring a single copy of the construct. Lentivirus packaged with the constructs were made using the ViraPower™kit from Invitrogen™. 293T cells from ATCC (Catalog number: CRL-3216), were infected with the virus at low multiplicity of infection and selected by 5 μg/mL blasticidin in culture media for 2 weeks.
The levels of HiBit-WIZ tagged fusion proteins in compound-treated cell lines were measured as follows:
On day 1, cells were diluted to 1.0×10^6 cells/ml in normal growth medium. 20 μL of cell suspension were plated in each well of a solid white 384-well plate. Plates were incubated overnight in a 37° C. and 5% CO2 humidified tissue culture incubator.
On day 2, serial dilutions of compounds were made in 384-well plates. Compound plates were set up with DMSO in columns 1, 2, 23, 24, and 10-point compound dilution series in column 3-12 and column 13-22. 10 mM stock solution of compound were placed into column 3 or 13 and a 1:5 serial dilution was carried out until there was a 10-point dilution series per compound. 50 nL of diluted compounds were transferred into the plated cells by Echo® (Labcyte) acoustic transfer. The highest concentration of compound was 25 μM. Plates were incubated overnight (about 18 hours) in a 37° C. and 5% CO2 humidified tissue culture incubator.
On day 3, plates were removed from the incubator and allowed to equilibrate at room temperature for 60 minutes. HiBit substrate (Nano-Glo® HiBit Lytic Detection System, Promega Catalogue number: N3050) was added as described by the manufacturers protocols. Plates were incubated at room temperature for 30 minutes and luminescence was read using an EnVision® reader (PerkinElmer®). Data was analyzed and visualized using the Spotfire® software package.
WIZ Amax reflects the DMSO-normalized, curve-fitted percentage of WIZ-HiBit remaining at 25 uM. It was calculated by normalizing DMSO controls to 100%, parametric curve fitting of the dose response data (10-point, 5-fold), followed by calculation of response at 25 uM using the fitted equation (nd=not determined).

T1 sequence (O95785 whole entry): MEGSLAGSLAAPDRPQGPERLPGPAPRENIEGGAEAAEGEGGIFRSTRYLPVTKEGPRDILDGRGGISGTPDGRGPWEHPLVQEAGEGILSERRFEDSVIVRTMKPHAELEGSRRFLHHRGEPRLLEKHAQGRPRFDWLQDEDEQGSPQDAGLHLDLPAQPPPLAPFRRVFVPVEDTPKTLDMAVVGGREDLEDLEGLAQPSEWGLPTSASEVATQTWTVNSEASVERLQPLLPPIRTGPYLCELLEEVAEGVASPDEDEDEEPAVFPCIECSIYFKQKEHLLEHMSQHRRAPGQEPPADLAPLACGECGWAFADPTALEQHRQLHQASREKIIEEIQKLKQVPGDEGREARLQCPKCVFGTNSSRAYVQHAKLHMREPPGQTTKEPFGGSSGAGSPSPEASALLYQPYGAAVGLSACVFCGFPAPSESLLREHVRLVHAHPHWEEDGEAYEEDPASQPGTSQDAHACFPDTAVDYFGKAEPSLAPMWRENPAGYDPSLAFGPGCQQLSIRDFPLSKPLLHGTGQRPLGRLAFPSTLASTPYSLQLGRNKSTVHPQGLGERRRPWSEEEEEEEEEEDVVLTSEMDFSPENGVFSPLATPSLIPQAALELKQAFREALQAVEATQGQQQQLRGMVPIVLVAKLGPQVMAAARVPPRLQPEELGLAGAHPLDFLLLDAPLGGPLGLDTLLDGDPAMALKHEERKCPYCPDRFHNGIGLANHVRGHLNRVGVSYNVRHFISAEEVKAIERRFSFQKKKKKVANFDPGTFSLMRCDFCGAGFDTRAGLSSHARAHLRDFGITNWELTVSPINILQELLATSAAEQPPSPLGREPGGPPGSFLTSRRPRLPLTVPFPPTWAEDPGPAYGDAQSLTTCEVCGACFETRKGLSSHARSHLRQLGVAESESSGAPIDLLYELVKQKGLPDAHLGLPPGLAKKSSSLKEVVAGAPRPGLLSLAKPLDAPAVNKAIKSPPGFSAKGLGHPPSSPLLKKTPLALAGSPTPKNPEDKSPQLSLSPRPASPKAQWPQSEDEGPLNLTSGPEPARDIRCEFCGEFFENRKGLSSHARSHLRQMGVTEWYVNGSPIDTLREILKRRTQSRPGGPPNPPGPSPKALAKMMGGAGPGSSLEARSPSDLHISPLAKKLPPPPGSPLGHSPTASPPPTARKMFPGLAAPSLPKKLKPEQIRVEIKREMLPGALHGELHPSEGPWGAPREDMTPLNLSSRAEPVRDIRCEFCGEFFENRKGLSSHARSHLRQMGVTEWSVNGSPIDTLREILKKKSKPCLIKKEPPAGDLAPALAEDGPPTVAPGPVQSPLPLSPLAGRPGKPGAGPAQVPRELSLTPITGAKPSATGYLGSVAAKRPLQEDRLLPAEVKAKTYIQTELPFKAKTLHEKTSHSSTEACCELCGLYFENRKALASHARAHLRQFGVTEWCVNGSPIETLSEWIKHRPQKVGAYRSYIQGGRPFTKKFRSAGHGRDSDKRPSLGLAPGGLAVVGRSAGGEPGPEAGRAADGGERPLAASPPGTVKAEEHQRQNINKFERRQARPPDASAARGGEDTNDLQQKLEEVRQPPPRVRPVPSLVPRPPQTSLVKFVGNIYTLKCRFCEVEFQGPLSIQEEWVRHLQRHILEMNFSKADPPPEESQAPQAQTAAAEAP
T1 sequence (Q96SW2 whole entry): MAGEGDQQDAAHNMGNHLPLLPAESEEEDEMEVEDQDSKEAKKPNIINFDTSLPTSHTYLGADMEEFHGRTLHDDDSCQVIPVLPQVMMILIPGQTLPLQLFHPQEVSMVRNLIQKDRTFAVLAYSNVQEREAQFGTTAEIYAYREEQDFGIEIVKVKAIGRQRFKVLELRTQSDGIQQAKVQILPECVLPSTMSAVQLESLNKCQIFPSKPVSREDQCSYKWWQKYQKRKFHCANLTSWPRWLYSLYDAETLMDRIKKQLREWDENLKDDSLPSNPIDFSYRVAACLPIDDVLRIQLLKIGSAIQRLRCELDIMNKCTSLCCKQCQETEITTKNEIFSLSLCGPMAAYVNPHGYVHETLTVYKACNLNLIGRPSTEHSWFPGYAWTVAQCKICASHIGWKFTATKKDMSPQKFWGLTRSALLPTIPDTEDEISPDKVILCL
T1 sequence (Q16531 whole entry partner): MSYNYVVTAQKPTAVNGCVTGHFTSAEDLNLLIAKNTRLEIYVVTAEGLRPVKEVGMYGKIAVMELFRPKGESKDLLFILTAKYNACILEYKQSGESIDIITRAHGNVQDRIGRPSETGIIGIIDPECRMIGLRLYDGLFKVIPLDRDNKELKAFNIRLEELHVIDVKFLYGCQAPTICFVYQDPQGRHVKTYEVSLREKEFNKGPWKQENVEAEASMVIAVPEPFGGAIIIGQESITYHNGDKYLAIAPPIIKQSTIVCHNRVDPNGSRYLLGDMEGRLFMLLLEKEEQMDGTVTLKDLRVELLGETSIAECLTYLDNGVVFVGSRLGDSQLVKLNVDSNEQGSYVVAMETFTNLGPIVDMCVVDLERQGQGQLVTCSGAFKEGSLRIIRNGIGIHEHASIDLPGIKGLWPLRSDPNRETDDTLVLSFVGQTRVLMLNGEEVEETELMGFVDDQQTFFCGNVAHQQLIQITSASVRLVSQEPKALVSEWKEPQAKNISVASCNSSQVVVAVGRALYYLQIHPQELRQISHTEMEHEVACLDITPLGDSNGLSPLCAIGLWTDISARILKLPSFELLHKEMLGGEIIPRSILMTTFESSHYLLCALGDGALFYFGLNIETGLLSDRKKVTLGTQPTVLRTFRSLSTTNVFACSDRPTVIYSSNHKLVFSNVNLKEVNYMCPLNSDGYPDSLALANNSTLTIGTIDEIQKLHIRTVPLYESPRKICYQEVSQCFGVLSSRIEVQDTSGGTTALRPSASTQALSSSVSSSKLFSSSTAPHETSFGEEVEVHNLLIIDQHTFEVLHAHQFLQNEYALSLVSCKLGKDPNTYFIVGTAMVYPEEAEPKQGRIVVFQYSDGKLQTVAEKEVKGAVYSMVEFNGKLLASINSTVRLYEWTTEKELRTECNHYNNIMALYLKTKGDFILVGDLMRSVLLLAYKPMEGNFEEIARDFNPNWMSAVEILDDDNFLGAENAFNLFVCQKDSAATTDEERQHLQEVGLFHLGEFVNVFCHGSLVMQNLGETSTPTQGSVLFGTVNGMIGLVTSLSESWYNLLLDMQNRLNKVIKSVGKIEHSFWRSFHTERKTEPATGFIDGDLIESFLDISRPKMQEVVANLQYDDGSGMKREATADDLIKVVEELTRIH

CN1CC2CCC1CN2Cc1ccc2onc(N3CCC(=O)NC3=O)c2c1 (single isomer, unassigned) [Example 123, 1-(5-((5-methyl-2,5-diazabicyclo[2.2.2]octan-2-yl)methyl)benzo[d]isoxazol-3-yl)dihydropyrimidine-2,4(1H,3H)-dione]
Dmax at 25 µM: 89%
remaining activity at 25 µM: 11%
DC50: 0.059 µM

C[C@H]1CN(Cc2ccc3onc(N4CCC(=O)NC4=O)c3c2)CCN1CC1COC1 [Example 86, (S)-1-(5-((3-methyl-4-(oxetan-3-ylmethyl)piperazin-1-yl)methyl)benzo[d]isoxazol-3-yl)dihydropyrimidine-2,4(1H,3H)-dione]
Dmax at 25 µM: 86%
remaining activity at 25 µM: 14%
DC50: 0.011 µM

O=C1CCN(c2noc3ccc(CN4CCN(Cc5ccccc5)CC4)cc23)C(=O)N1 [Example 25, 1-(5-((4-benzylpiperazin-1-yl)methyl)benzo[d]isoxazol-3-yl)dihydropyrimidine-2,4(1H,3H)-dione]
Dmax at 25 µM: 87%
remaining activity at 25 µM: 13%
DC50: 0.13 µM

Cc1c(CN2CCN(CC(C)C)[C@@H](C)C2)ccc2onc(N3CCC(=O)NC3=O)c12 [Example 128, (S)-1-(5-((4-isobutyl-3-methylpiperazin-1-yl)methyl)-4-methylbenzo[d]isoxazol-3-yl)dihydropyrimidine-2,4(1H,3H)-dione]
Dmax at 25 µM: 88%
remaining activity at 25 µM: 12%
DC50: 0.007 µM

O=C1CCN(c2noc3ccc(CN4C[C@H]5C[C@@H]4CN5CC4CCOCC4)cc23)C(=O)N1 [Example 98, 1-(5-(((1R,4R)-5-((tetrahydro-2H-pyran-4-yl)methyl)-2,5-diazabicyclo[2.2.1]heptan-2-yl)methyl)benzo[d]isoxazol-3-yl)dihydropyrimidine-2,4(1H,3H)-dione]
Dmax at 25 µM: 81%
remaining activity at 25 µM: 19%
DC50: 0.05 µM

CC(C)(C)OC(=O)N1CCCC(Cc2ccc3onc(N4CCC(=O)NC4=O)c3c2)CC1 (stereo not drawn) [Example 51, tert-butyl 4-((3-(2,4-dioxotetrahydropyrimidin-1 (2H)-yl)benzo[d]isoxazol-5-yl)methyl)azepane-1-carboxylate]
Dmax at 25 µM: 87%
remaining activity at 25 µM: 13%
DC50: 0.392 µM

Cc1c(CN2CCN(C)[C@@H](C)C2)ccc2onc(N3CCC(=O)NC3=O)c12 [Example 129, (S)-1-(5-((3,4-dimethylpiperazin-1-yl)methyl)-4-methylbenzo[d]isoxazol-3-yl)dihydropyrimidine-2,4(1H,3H)-dione]
Dmax at 25 µM: 86%
remaining activity at 25 µM: 14%
DC50: 0.009 µM

O=C1CCN(c2noc3ccc(CN4C[C@H]5CC[C@@H](C4)N5)cc23)C(=O)N1 [Example 100, 1-(5-(((1R,5S)-3,8-diazabicyclo[3.2.1]octan-3-yl)methyl)benzo[d]isoxazol-3-yl)dihydropyrimidine-2,4(1H,3H)-dione]
Dmax at 25 µM: 76%
remaining activity at 25 µM: 24%
DC50: 0.034 µM

O=C1CCN(c2noc3ccc(CN4CCN(Cc5cccnc5)CC4)cc23)C(=O)N1 [Example 26, 1-(5-((4-(pyridin-3-ylmethyl)piperazin-1-yl)methyl)benzo[d]isoxazol-3-yl)dihydropyrimidine-2,4(1H,3H)-dione]
Dmax at 25 µM: 86%
remaining activity at 25 µM: 14%
DC50: 0.19 µM

O=C1CCN(c2noc3ccc(CC4CCN(CCC5CCCCC5)CC4)cc23)C(=O)N1 [Example 11, 1-(5-((1-(2-cyclohexylethyl)piperidin-4-yl)methyl)benzo[d]isoxazol-3-yl)dihydropyrimidine-2,4(1H,3H)-dione]
Dmax at 25 µM: 90%
remaining activity at 25 µM: 10%
DC50: 0.011 µM

CC(C)CN1CCC(Cc2ccc3onc(N4CCC(=O)NC4=O)c3c2)CC1 [Example 5, 1-(5-((1-isobutylpiperidin-4-yl)methyl)benzo[d]isoxazol-3-yl)dihydropyrimidine-2,4(1H,3H)-dione]
Dmax at 25 µM: 91%
remaining activity at 25 µM: 9%
DC50: 0.014 µM
